The results in this text go back to PMC5898002, “Overexpression of a type III PKS gene affording novel violapyrones with enhanced anti-influenza A virus activity” (Microbial Cell Factories, 2018).

Data set [1] deals with influenza virus A/PR8/34 (H1N1). Description: microbe, parasite or virus in culture. It counts as cell-based. Particulars: MDCK cells, MOI = 1.0 (table footnote), 48 h post-infection, mean of n = 4, read-out: IC50: concentration required to inhibit influenza virus A/PR8/34 (H1N1) yield at 48 h post-infection by 50%.
A short description of data set [2]: in vitro. Particulars: dog, CC50: concentration required to reduce MDCK cell viability by 50%.
In data set [3] the test system is MDCK cells. Conditions: dog, 48 h.
Data set [4] in a line: cytotoxicity in MDCK cell by MTT assay. Conditions: dog, MDCK cells, CC50: concentration required to reduce MDCK cell viability by 50%, mean of n = 3. (In general: Formazan colour is commonly taken as a measure of viable cells.)

One may read the CC50 as the concentration that lowers cell viability or growth by half. A low value points to greater toxicity to the cells. Regarding `Cc1c(O)cc(CCCCC(C)C)oc1=O` [Compound 10, Violapyrone B], the IC50 in data set [1] is > 200 µM. In addition, the CC50 at 48 h in data set [2] was > 1400 µM. For the same molecule, the CC50 in data set [3] is > 1500 µM.
Regarding `CCCCCCCc1cc(O)c(C)c(=O)o1` [Compound 11, VLP I], the IC50 in data set [1] is 113 µM. For the same molecule, the CC50 at 48 h in data set [4] was 2200 µM.
Consider `CCc1c(O)cc(CCCCC(C)C)oc1=O` [Compound 12, VLP P], for which the IC50 in data set [1] was determined as 26.9 µM. The CC50 at 48 h in data set [4] came to 1570 µM.
For `CCC(C)CCCCc1cc(O)c(C)c(=O)o1` (stereo not shown) [Compound 13, VLP C], in that order: 107 µM and 1620 µM.
For `Cc1c(O)cc(CCCCCC(C)C)oc1=O` [Compound 14, VLP H], in that order: 28.8 µM and 1450 µM.
For `NC(=O)c1ncn([C@@H]2O[C@H](CO)[C@@H](O)[C@H]2O)n1` [Ribavirin, reference compound], in that order: 113 µM and 1520 µM.
